# From patent US10314816B2, “Antimicrobial compounds, compositions and methods of use thereof” (Wisconsin Alumni Research Foundation, priority 2012, dated 2019)
# Read-outs that look alike come from different tables or passages of the source.
# How the values were obtained:
# E. coli BW25113 ΔtolC = experiment: MIC of DCAP analogs, LB media, macrodilution (CLSI); type: cell-based; details: Escherichia coli
# Procedure: Luria-Bertani (LB) media (10 g/L tryptone, 10 g/L NaCl, 5 g/L yeast extract, pH 7.0) was used to grow all the strains represented in Tables 5 and 6. All the cultures were grown at 37° C. All the E. coli strains were grown while shaking at 200 rpm and the clinical pathogens were statically incubated. […]
# Acinetobacter baumannii = experiment: MIC of DCAP analogs, LB media, microdilution (CLSI); type: cell-based; details: microdilution (Table 6)
# Procedure: (§1) Luria-Bertani (LB) media (10 g/L tryptone, 10 g/L NaCl, 5 g/L yeast extract, pH 7.0) was used to grow all the strains represented in Tables 5 and 6. All the cultures were grown at 37° C. All the E. coli strains were grown while shaking at 200 rpm and the clinical pathogens were statically incubated.
# (§2) For clinical pathogenic organisms including S. typhimurium, V. cholera, S. boydii, K pneumonia, E. aerogenes, A. baumannii, E. tarda, and M. morganii strains, liquid LB media in 96-well microplates (100 μL/well) and the microdilution method from the CLSI guidelines were used.
# Edwardsiella tarda = experiment: as above; type: cell-based; details: microdilution (Table 6)
# Procedure: as §1, §2
# Enterobacter aerogenes = experiment: as above; type: cell-based; details: Klebsiella aerogenes, microdilution (Table 6)
# Procedure: as §1, §2
# Klebsiella pneumonia = experiment: as above; type: cell-based; details: Klebsiella pneumoniae, microdilution (Table 6)
# Procedure: as §1, §2
# Morganella morganii = experiment: as above; type: cell-based; details: microdilution (Table 6)
# Procedure: as §1, §2
# Salmonella typhimurium = experiment: as above; type: cell-based; details: Salmonella enterica, microdilution (Table 6)
# Procedure: as §1, §2
# Shigella boydii = experiment: as above; type: cell-based; details: microdilution (Table 6)
# Procedure: as §1, §2
# Vibrio cholera = experiment: as above; type: cell-based; details: Vibrio cholerae
# Procedure: as §1, §2
# C. crescentus CB15N [1] = experiment: MIC of bacterial growth, macrodilution (Table 2); type: cell-based, Caulobacter crescentus; details: actively growing cells
# Procedure: Bacterial strains and growth conditions. Luria-Bertani (LB) media (10 g/L tryptone, 10 g/L NaCl, 5 g/L yeast extract, pH 7.2) was used to grow B. subtilis 168, S. aureus FRI100, and P. aeruginosa K1115 strains. For P. aeruginosa PAO1 and K1119 strains and two E. coli BW25113 strains, M8 minimal media (241 mg/L MgSO4, 4 mg/L glucose, 5 mg/L casamino acids, 12.8 g/L Na2HPO4.7H2O, 3 g/L KH2PO4, and 0.5 g/L NaCl) was used. PYE media (2 g/L peptone, 1 g/L yeast extract, 0.8 mM MgSO4, and 0.5 mM CaCl2) was used for culturing C. crescentus cells at 30° C. All cultures were grown at 37° C., except for C. crescentus (30° C.). All cultures were grown while shaking at 200 rpm.
# Determination of the minimum inhibitory concentration (MIC) of bacterial growth. The MIC of various organisms in liquid media was determined using the macrodilution method according to the NCCLS guidelines. For the starting inoculum, cultures were diluted to contain approximately 5×10^5 cells/mL in growth media. To create a two-fold dilution series for the macrodilution technique, each compound was added to the first culture tube (4 mL total volume) at the highest concentration. 2 mL of this culture was diluted into an equal volume of inoculated media (a two-fold dilution). The final volume for each culture was 2 mL.
# C. crescentus CB15N [2] = experiment: Minimum stationary-bactericidal concentration (MSC); type: cell-based, Caulobacter crescentus; details: C. crescentus CB15N, stationary cells, 24 hours
# Procedure: (§3) Determination of the Minimum Stationary-Bactericidal Concentration.
# (§4) Cultures of C. crescentus (24 hour incubation) and S. aureus cells (5 day incubation) were grown from single colonies. Cells were collected by centrifugation (8500 rpm for 2.5 minutes) and re-suspended in M2 salt solution (for C. crescentus; 1.74 g/L Na2HPO4, 1.06 g/L KH2PO4, and 0.5 g/L NH4Cl) or phosphate-buffered saline (for S. aureus; PBS, Fisher Scientific). The centrifugation and re-suspension was repeated two more times. After the repeated washing steps, the cell suspension was diluted 10-fold to achieve approximately 10^8 cells/mL. Aliquots of the diluted cell suspension were transferred into wells of a 96-well plate (100 μL/well), and 2-fold serial dilutions were performed to test a range of antibiotic concentrations. The plate was sealed with Parafilm® and incubated for 24 hours at room temperature in the dark. After incubation, 50 μl was removed from each well to spread on nutrient agar plates (1.5% agar in PYE for C. crescentus, and LB for S. aureus). The colonies on each plate were counted after growing the cells for 1-2 days. For determining the kinetics of bactericidal activity of DCAP on stationary cultures, the washed cells were diluted by 100-fold in appropriate solutions and tested using a single concentration of the compound while including a DMSO control sample. Cell suspensions were kept in closed microcentrifuge tubes instead of the wells of 96-well plates. 100 μL of the suspensions was removed for plating at each time point. All MSC experiments were performed in static conditions.
# (§5) In addition to its activity against actively growing bacteria, DCAP kills cells in stationary phase (Table 3). This property was tested against C. crescentus and S. aureus. […] To ensure that bacteria were deprived of nutrients, the cells were grown into late stationary phase (i.e., 24 hours for C. crescentus and 5 days for S. aureus). These cells were collected, suspended in isotonic solutions devoid of amino acids or sugars, and treated with a small molecule (DMSO, DCAP, CCCP or ampicillin). Cell viability was measured over time by plating culture aliquots on non-selective, solid growth media. The minimum concentration of antibiotic required to completely eliminate colony formation was designated as the minimum stationary-bactericidal concentration (MSC). […] CCCP inhibited the proliferation of C. crescentus cells regardless of their physiological status. However, the MSC of CCCP for S. aureus was >300-fold higher than the MIC. This dramatic decrease in the effectiveness of CCCP in S. aureus may be due to changes in membrane composition as cells adjust their metabolism in nutrient-deprived conditions.
# S. aureus FRI 100 [3] = experiment: as above; type: cell-based, Staphylococcus aureus; details: S. aureus FRI 100, stationary cells, 24 hours
# Procedure: as §3, §4, §5
# C. crescentus CB15N [4] = experiment: Minimum biofilm inhibitory concentration (bMIC); type: cell-based, Caulobacter crescentus
# Procedure: (§6) Determination of the minimum biofilm inhibitory concentration of growth (bMIC) and biofilm eradication concentration (MBEC). Overnight cultures of C. crescentus and S. aureus were grown and diluted 100-fold into appropriate nutrient media. Aliquots of the diluted suspension were transferred into wells of 96-well plates (150 μL/well). 2-fold serial dilutions were performed for compound-containing wells. For every experiment, three replicates for each compound concentration tested were included. After transferring aliquots of the suspension, the plates were closed with specialized lids that have protruding pins (Nunc STP System), and the plates were sealed using Parafilm®. The plates were incubated in a static incubator at 30° C. (C. crescentus) or 37° C. (S. aureus) for 24 hours. After the cells had formed biofilms on the surface of the pins, the pins were rinsed by dipping them in M2 (C. crescentus) or PBS (S. aureus) solutions. To rinse the pins, clean, sterile 96-well plates were used (aliquots of 200 μL/well); each rinse lasted 10 sec. After washing away planktonic cells loosely bound to biofilms, the pins were inserted into a 96-well plate that was pre-aliquoted with nutrient media containing antibiotics (2-fold dilutions, a final volume of 150 μL/well). The plates were sealed with Parafilm®, and incubated for 17 hours, and the bMIC was measured at the end of the incubation by visual inspection. […] The plates were sealed with Parafilm®, incubated for 24 hours, and the MBEC was measured at the end of the incubation by visual inspection.
# (§7) Membrane-active compounds are also efficient at eradicating biofilm-associated cells (Table 2). […] To determine the efficacy of antibiotics against biofilms, the minimum biofilm inhibitory concentration (bMIC) and the minimum biofilm eradication concentration (MBEC) were measured. […] After 24 hours of exposure to compounds, the lowest concentration of antibiotic that inhibited planktonic cell growth in the wells (bMIC) was determined.
# S. aureus FRI 100 [5] = experiment: Minimum biofilm inhibitory concentration (bMIC); type: cell-based, Staphylococcus aureus; details: S. aureus FRI 100 biofilm
# Procedure: as §6, §7
# C. crescentus CB15N [6] = experiment: Minimum biofilm eradication concentration (MBEC); type: cell-based, Caulobacter crescentus
# Procedure: (§8) Determination of the minimum biofilm inhibitory concentration of growth (bMIC) and biofilm eradication concentration (MBEC). Overnight cultures of C. crescentus and S. aureus were grown and diluted 100-fold into appropriate nutrient media. Aliquots of the diluted suspension were transferred into wells of 96-well plates (150 μL/well). 2-fold serial dilutions were performed for compound-containing wells. For every experiment, three replicates for each compound concentration tested were included. After transferring aliquots of the suspension, the plates were closed with specialized lids that have protruding pins (Nunc STP System), and the plates were sealed using Parafilm®. The plates were incubated in a static incubator at 30° C. (C. crescentus) or 37° C. (S. aureus) for 24 hours. After the cells had formed biofilms on the surface of the pins, the pins were rinsed by dipping them in M2 (C. crescentus) or PBS (S. aureus) solutions. To rinse the pins, clean, sterile 96-well plates were used (aliquots of 200 μL/well); each rinse lasted 10 sec. After washing away planktonic cells loosely bound to biofilms, the pins were inserted into a 96-well plate that was pre-aliquoted with nutrient media containing antibiotics (2-fold dilutions, a final volume of 150 μL/well). The plates were sealed with Parafilm®, and incubated for 17 hours, and the bMIC was measured at the end of the incubation by visual inspection. After the bMIC run, the rinse steps were repeated to remove planktonic cells, and the pins were inserted into a 96-well plate that was pre-aliquoted with drug-free nutrient media (aliquots of 150 μL/well). The plates were sealed with Parafilm®, incubated for 24 hours, and the MBEC was measured at the end of the incubation by visual inspection.
# After performing bMIC experiments, biofilms growing on the pins of the lid were transferred to nutrient media devoid of antibiotics to measure the minimum concentration of antibiotic that prevented planktonic growth from biofilms in antibiotic-free nutrient media (MBEC). MBEC indicates whether the exposure to antimicrobial agent used during the bMIC experiment sterilized biofilm-associated cells. […] CCCP was the only effective antibiotic against S. aureus biofilms. Since CCCP was not as effective as DCAP at killing stationary cells, it was hypothesized that this variability in efficacy of membrane-active drugs is in part caused by changes in membrane composition (i.e., membrane proteins and lipid content) at different developmental stages of bacterial cells. […]
# S. aureus FRI 100 [7] = experiment: Minimum biofilm eradication concentration (MBEC); type: cell-based, Staphylococcus aureus; details: S. aureus FRI 100 biofilm
# Procedure: as §8
# After performing bMIC experiments, biofilms growing on the pins of the lid were transferred to nutrient media devoid of antibiotics to measure the minimum concentration of antibiotic that prevented planktonic growth from biofilms in antibiotic-free nutrient media (MBEC). […]
# [8] = BW25113, read-out: MIC (ΔtolC E. coli)
smiles,measurement,setting,value
CCC(CC)CNCC(O)Cn1c2ccc(Cl)cc2c2cc(Cl)ccc21 (stereo not drawn) [Compound 10],MIC,E. coli BW25113 ΔtolC; BW25113,2.5 µM
same,MIC,E. coli BW25113 ΔtolC; [8],2.5 µM
same,MIC,Acinetobacter baumannii,25 µM
same,MIC,Edwardsiella tarda,12.5 µM
same,MIC,Enterobacter aerogenes,> 200 µM
same,MIC,Klebsiella pneumonia,> 200 µM
same,MIC,Morganella morganii,> 200 µM
same,MIC,Salmonella typhimurium,200 µM
same,MIC,Shigella boydii,25 µM
same,MIC,Vibrio cholera,6.25 µM
CC(CO)(CO)NCC(O)Cn1c2ccc(Cl)cc2c2cc(Cl)ccc21 (stereo not drawn) [Compound 13],MIC,E. coli BW25113 ΔtolC; [8],40 µM
CC(C)CCNCC(O)Cn1c2ccc(Cl)cc2c2cc(Cl)ccc21 (stereo not drawn) [Compound 8],MIC,E. coli BW25113 ΔtolC; BW25113,2.5 µM
same,MIC,E. coli BW25113 ΔtolC; [8],2.5 µM
same,MIC,Acinetobacter baumannii,12.5 µM
same,MIC,Edwardsiella tarda,25 µM
same,MIC,Enterobacter aerogenes,50 µM
same,MIC,Klebsiella pneumonia,50 µM
same,MIC,Morganella morganii,50 µM
same,MIC,Salmonella typhimurium,50 µM
same,MIC,Shigella boydii,25 µM
same,MIC,Vibrio cholera,6.25 µM
CCC(CO)(CO)NCC(O)Cn1c2ccc(Cl)cc2c2cc(Cl)ccc21 (stereo not drawn) [Compound 14],MIC,E. coli BW25113 ΔtolC; [8],20 µM
OCC(CO)(CO)NCC(O)CN1CCc2cc(Cl)ccc21 (stereo not drawn) [Compound 12],MIC,E. coli BW25113 ΔtolC; [8],> 40 µM
CCC(CC)NCC(O)Cn1c2ccc(Cl)cc2c2cc(Cl)ccc21 (stereo not drawn) [Compound 6],MIC,E. coli BW25113 ΔtolC; [8],5 µM
OCC(CO)(CO)NC[C@@H](O)Cn1c2ccccc2c2ccccc21 [Compound 4],MIC,E. coli BW25113 ΔtolC; [8],> 80 µM
OCC(CO)NCC(O)Cn1c2ccc(Cl)cc2c2cc(Cl)ccc21 (stereo not drawn) [Compound 5],MIC,E. coli BW25113 ΔtolC; [8],20 µM
OCC(CO)(CO)NC[C@H](O)Cn1c2ccc(Cl)cc2c2cc(Cl)ccc21 [Compound 3],MIC,E. coli BW25113 ΔtolC; [8],20 µM
OCC(CO)(CO)NC[C@@H](O)Cn1c2ccc(Cl)cc2c2cc(Cl)ccc21 [Compound 2],MIC,E. coli BW25113 ΔtolC; [8],20 µM
"CC1(C)S[C@@H]2[C@H](NC(=O)[C@H](N)c3ccccc3)C(=O)N2[C@H]1C(=O)O [Amp, ampicillin]",MIC,C. crescentus CB15N [1],50 µg/mL
same,MSC,C. crescentus CB15N [2],>400 µg/mL
same,MSC,S. aureus FRI 100 [3],100 µg/mL
same,bMIC,C. crescentus CB15N [4],100 µg/mL
same,bMIC,S. aureus FRI 100 [5],0.8 µg/mL
same,MBEC,C. crescentus CB15N [6],>400 µg/mL
same,MBEC,C. crescentus CB15N [6]; listed as ampicillin,> 400 µM
same,MBEC,S. aureus FRI 100 [7],>200 µg/mL
CCCCCNCC(O)Cn1c2ccc(Cl)cc2c2cc(Cl)ccc21 (stereo not drawn) [Compound 7],MIC,E. coli BW25113 ΔtolC; [8],5 µM
OC(CNC1CCCCC1)Cn1c2ccc(Cl)cc2c2cc(Cl)ccc21 (stereo not drawn) [Compound 9],MIC,E. coli BW25113 ΔtolC; BW25113,2.5 µM
same,MIC,E. coli BW25113 ΔtolC; [8],2.5 µM
same,MIC,Acinetobacter baumannii,100 µM
same,MIC,Edwardsiella tarda,200 µM
same,MIC,Enterobacter aerogenes,> 200 µM
same,MIC,Klebsiella pneumonia,> 200 µM
same,MIC,Morganella morganii,> 200 µM
same,MIC,Salmonella typhimurium,> 200 µM
same,MIC,Shigella boydii,200 µM
same,MIC,Vibrio cholera,25 µM
CC(C)(C)NCC(O)Cn1c2ccc(Cl)cc2c2cc(Cl)ccc21 (stereo not drawn) [Compound 11],MIC,E. coli BW25113 ΔtolC; [8],40 µM
